Experiment: molar heat capacity at constant pressure
Conditions: 101.33 kPa, Crystal 2, relaxation calorimetry

O=P([O-])([O-])[O-].[Fe+2].[Li+] [iron(II) lithium phosphate]
Conditions | molar heat capacity at constant pressure [J/K/mol]
2.03 K | 0.0162
2.2 K | 0.0187
2.38 K | 0.0224
2.58 K | 0.0243
2.8 K | 0.0271
3.04 K | 0.0309
3.29 K | 0.0325
3.56 K | 0.0401
3.86 K | 0.048
4.19 K | 0.0562
4.54 K | 0.059
4.92 K | 0.0709
5 K | 0.0481
5.33 K | 0.0742
5.78 K | 0.0903
6.26 K | 0.101
6.78 K | 0.12
7.35 K | 0.138
7.97 K | 0.173
8.64 K | 0.22
9.36 K | 0.276
10 K | 0.3419
10.14 K | 0.364
10.23 K | 0.46
10.75 K | 0.535
11.26 K | 0.615
11.77 K | 0.706
12.28 K | 0.808
12.8 K | 0.917
13.31 K | 1.038
13.83 K | 1.171
14.34 K | 1.314
14.85 K | 1.467
15 K | 1.514
15.36 K | 1.631
15.88 K | 1.797
16.39 K | 1.977
16.9 K | 2.169
17.41 K | 2.363
17.93 K | 2.571
18.44 K | 2.79
18.95 K | 3.015
19.47 K | 3.249
19.98 K | 3.484
20 K | 3.498
20.49 K | 3.75
21.01 K | 3.99
21.51 K | 4.26
22.03 K | 4.55
22.54 K | 4.83
23.05 K | 5.13
23.56 K | 5.43
24.08 K | 5.74
24.59 K | 6.06
25 K | 6.334
25.1 K | 6.4
25.61 K | 6.75
26.13 K | 7.09
26.64 K | 7.45
27.15 K | 7.84
27.67 K | 8.22
28.18 K | 8.63
28.69 K | 9.04
29.2 K | 9.47
29.71 K | 9.92
30 K | 10.17
30.22 K | 10.36
30.73 K | 10.82
31.24 K | 11.31
31.76 K | 11.78
32.27 K | 12.28
32.78 K | 12.78
33.29 K | 13.28
33.8 K | 13.81
34.31 K | 14.35
34.82 K | 14.9
35 K | 15.09
35.34 K | 15.46
35.85 K | 16.03
37.02 K | 17.18

Reference: the NIST ThermoML archive (doi:10.1016/j.jct.2015.01.007)
